Experiments:
spontaneous motility = experiment: Spontaneous motility in the mouse; format: in vivo; conditions: 1 hour after administration, 10 minutes
Protocol: (6) Spontaneous motility in the mouse One hour after the administration of the product to be studied, the animals are placed by groups of two in a circular corridor swept by beams of infrared light making it possible to count their movements from one place to another. The number of movements from one place to another is counted for 10 minutes and compared with the score obtained by a control group.

[1] = acute toxicity by the oral way in the mouse; conditions: in vivo; for LD50: PO; for mortality: 600 mg/kg PO, read-out: acute toxicity, deaths
Protocol: (1) acute toxicity by the oral way in the mouse
This was evaluated in the mouse by the method of Behrens and Karber [Arch. Exp. Path. Pharm. 177, 379 (1935)]

[2] = test system: catalepsy induced by prochlorperazine; experiment: antagonism to catalepsy induced by prochlorperazine in the rat; format: in vivo
Source text: (3) antagonism to catalepsy induced by prochlorperazine in the rat. Injection of prochlorperazine in the rat induces a cataleptic state which is more or less inhibited by antidepressants. The values given in table I show percentages of inhibition. [Boissier J. R. and Simon P., Therapie (1963), 18, 1257-77]

[3] = test system: symptoms of trembling induced by oxotremorine; experiment: Antioxotremoric action in the mouse; format: in vivo; conditions: 100 mg/kg PO, oxotremorine 2 mg/kg IP
[4] = test system: reserpine-induced hypothermia; experiment: Antagonism to reserpine-induced hypothermia; format: in vivo; conditions: mouse; for HYPOTHERMIA (Reserpine), maximal rise in temperature: reserpine 1 mg/kg IV
Protocol: (2) Antagonism to reserpine-induced hypothermia Administration of reserpine to the mouse (1 mg/kg IV) results in hypothermia which may be antagonized by certain anti-depressants. The values given in table I correspond, for the doses given, to the maximal rise in temperature. [Boissier et al., Therapie 1966, XXI, 109-117]

[5] = test system: stereotypies induced by amphetamine; experiment: Potentialization of stereotypies induced by amphetamine in the rat; format: in vivo; conditions: D-amphetamine 4 mg/kg IP
Protocol: (4) Potentialization of stereotypies induced by amphetamine in the rat.
The administration of D-amphetamine to the rat (4 mg/kg IP) results in stereotyped behaviour which can be potentialized or antogonized by various products.
The values given in table I show the percentage of potentialization. [Lapin I. P. and Schelkunov E. L. (1963) Second International Pharmacological Meeting 1, 205 Pergamon Press].

[6] = test system: heat stimulus (hot plate); experiment: Analgesic activity, hot plate method; format: in vivo; conditions: mouse; for ED50: PO, 50% of animals exposed to heat stimulus longer than 5 seconds, read-out: ANALGESIA ED 50
Protocol: (7) Analgesic activity This was assessed on the mouse by the hot plate method. […] [Eddy N. B. and Leimbach D. J., Pharmacol. Exp. Ther., 107, 385-393 (1953)]

Row | Compound | SPONTANEOUS MOTILITY, percentage of decrease in number of movements (spontaneous motility; 80 mg/kg PO) | LD50 [1] | CATALEPSY (Prochlorperazine), percentage of inhibition ([2]; 20 mg/kg IP) | ANTI-OXOTREMORIC ACTION, percentage of inhibition of trembling symptoms [3] | HYPOTHERMIA (Reserpine), maximal rise in temperature ([4]; 50 mg/kg PO) | STEREOTYPIES (Amphetamine), percentage of potentialization ([5]; 20 mg/kg PO) | ED50 [6] | SPONTANEOUS MOTILITY, percentage of decrease in number of movements (spontaneous motility; 100 mg/kg PO) | mortality [1] | HYPOTHERMIA (Reserpine), maximal rise in temperature ([4]; 12.5 mg/kg PO) | STEREOTYPIES (Amphetamine), percentage of potentialization ([5]; 5 mg/kg IP) | CATALEPSY (Prochlorperazine), percentage of inhibition ([2]; 40 mg/kg IP) | action on reserpine-induced hypothermy (in words) [4] | ANALGESIA (result in words) [6] | HYPOTHERMIA (Reserpine), maximal rise in temperature ([4]; 25 mg/kg PO)
1 | CN(C)CCC=C1c2ccccc2CCc2ccccc21 [AMITRIPTYLINE, reference compound] | 80% | 250 mg/kg | -33,3% | -100% | +2.5 °C | +65% | 16 mg/kg |  |  |  |  |  |  |  | 
2 | Cc1ccc2c(c1)CCc1oc(C)cc1C2=CCCN(C)C [compound no. 1, dimethyl-2,7 [(dimethylamino-3')propylidene]-4 dihydro-9,10 benzo-[4,5] cyclohepta [1,2-b] furan] |  |  | -26.1% | -35% |  |  | 48 mg/kg | 95.3% | 10% | +1 °C | +105% |  |  |  | 
3 | Cc1cc2c(o1)CCc1ccccc1C2=CCCN(C)C [compound no. 3, methyl-2 [(dimethylamino-3')-propylidene]-4 dihydro-9,10 benzo-[4,5] cyclohepta [1,2-b] furan] |  | 300 mg/kg |  | -75% | +3 °C |  |  | 84% |  |  | +9,2% | -33.3% | significant action | non specific | 
4 | Cc1ccc2c(c1)C(=CCCN(C)C)c1cc(C)oc1CC2 [compound no. 2, dimethyl-2,6 [(dimethylamino-3')]-propylidene-4 dihydro-9,10 benzo [4,5] cyclohepta [1,2-b] furan] |  |  | -44.4% | -30% |  |  | 47 mg/kg | 84.4% | 10% |  | +141% |  |  |  | +0.6 °C

— US4105785A, “Anti-depressive 2-methyl-4-[(3'-dimethylamino)propylidine]-9,10-dihydrobenzo [4,5]cyclohepta[1,2b]furan compounds” (priority 1976, dated 1978)
